Broadly, the pEC50 is −log10 of the EC50, conventionally taken in molar units.

The values below come from patent publication US10407445B2, “Hepatitis C virus inhibitors” (ENANTA PHARMACEUTICALS, INC., priority 2013, dated 2019).

One assay has as its system HCV GT 1a replicon. As to the kind of experiment: HCV replicon assay, stable GT 1a replicon (Renilla luciferase). Type of assay: cell-based. The settings on record: Hepatitis C virus, GT1A; HCV GT 1a replicon, 72 h; read-out: EC50 1a. A digest of the protocol:
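Huh-7.5 cells stably carrying a GT1a replicon (H77-based) with Renilla luciferase-Neo reporter, 4000 cells/well, sixteen-point half-log compound series, phenol red-free DMEM without G418. Luciferase read after 72 h relative to DMSO-treated cells gives EC50.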
Background: Replicon systems follow genome replication, usually without infectious particles.

Assay [1] has as its system GT1a replicon encoding NS5A mutation Q30R. The assay can be described thus: Transient replication assay, GT1a replicon with NS5A mutation Q30R. The following applies: Hepatitis C virus, read-out: EC50 1a Q30R. It is filed as cell-based.

pEC50: −log10 of the molar value.

Regarding `COC(=O)N[C@H](C(=O)N1C[C@]2(CCCOC2)C[C@H]1c1ncc(-c2ccc3c(c2)COc2cc(-c4cnc([C@@H]5C[C@@H]6CCCC[C@@H]6N5C(=O)[C@@H](NC(=O)OC)C(C)C)[nH]4)ccc2-3)[nH]1)C(C)C` [Compound 15], the negative-log EC50 (pEC50) in the assay with HCV GT 1a replicon was 11.10; in assay [1], 11.52.

In the case of `COC(=O)N[C@H](C(=O)N1C[C@]2(CCCOC2)C[C@H]1c1ncc(-c2ccc(-c3ccc4c(ccc5nc([C@@H]6CC7(CC7)CN6C(=O)[C@@H](NC(=O)OC)C(C)C)[nH]c54)c3)cc2)[nH]1)C(C)C` [Compound 28], the results for the pEC50 (in the assay with HCV GT 1a replicon; in assay [1]) were 10.96 and 10.22, respectively.

As to `COC(=O)N[C@H](C(=O)N1C[C@]2(CCCOC2)C[C@H]1c1ncc(-c2ccc3cc4cc(-c5cnc([C@@H]6C[C@@H]7CCCC[C@@H]7N6C(=O)[C@@H](NC(=O)OC)C(C)C)[nH]5)ccc4cc3c2)[nH]1)C(C)C` [Compound 13], the pEC50 with HCV GT 1a replicon is 10.44; in assay [1] it was 11.00.

On to `COC(=O)N[C@H](C(=O)N1CCC[C@H]1c1nc2ccc3cc(-c4ccc5c(ccc6nc([C@@H]7C[C@@]8(CCCOC8)CN7C(=O)[C@@H](NC(=O)OC)C(C)C)[nH]c65)c4)ccc3c2[nH]1)C(C)C` [Compound 48], for which the pEC50 was 11.22 in the assay on HCV GT 1a replicon and 10.30 in assay [1].

Consider `COC(=O)N[C@H](C(=O)N1CCC[C@H]1c1ncc(-c2ccc(-c3ccc4c(ccc5nc([C@@H]6CCCN6C(=O)[C@@H](NC(=O)OC)C(C)C)[nH]c54)c3)cc2)[nH]1)C(C)C` [Example 102], for which the negative logarithm of the EC50 (pEC50) in the assay on HCV GT 1a replicon is 10.82; in assay [1], 9.00.

As for `COC(=O)N[C@H](C(=O)N1C[C@]2(CCCOC2)C[C@H]1c1ncc(-c2ccc(-c3ccc4c(ccc5nc([C@@H]6C[C@@H]7C[C@@H]7N6C(=O)[C@@H](NC(=O)OC)C(C)C)[nH]c54)c3)cc2)[nH]1)C(C)C` [Compound 20], the negative logarithm of the EC50 (pEC50) in the assay on HCV GT 1a replicon was 10.85; in assay [1], 9.70.

Regarding `COC(=O)N[C@H](C(=O)N1C[C@]2(CCCOC2)C[C@H]1c1nc2ccc3cc(-c4ccc(-c5cnc([C@@H]6C[C@@H]7CCCC[C@@H]7N6C(=O)[C@@H](NC(=O)OC)C(C)C)[nH]5)cc4)ccc3c2[nH]1)C(C)C` [Compound 24], the pEC50 is 11.15 in the assay with HCV GT 1a replicon and 10.70 in assay [1].

`COC(=O)N[C@H](C(=O)N1C[C@]2(CCCOC2)C[C@H]1c1nc2ccc3cc(-c4ccc(-c5cnc([C@@H]6C[C@@H]7COC[C@@H]7N6C(=O)[C@@H](NC(=O)OC)C(C)C)[nH]5)cc4)ccc3c2[nH]1)C(C)C` [Compound 34]: the values for the negative-log EC50 (pEC50) (in the assay on HCV GT 1a replicon; in assay [1]) were 10.62 and 10.70, respectively.

Consider `COC(=O)N[C@H](C(=O)N1C[C@]2(CCCOC2)C[C@H]1c1ncc(-c2ccc(-c3ccc4c(ccc5nc([C@@H]6C[C@@]7(CCCOC7)CN6C(=O)[C@@H](NC(=O)OC)C(C)C)[nH]c54)c3)cc2)[nH]1)C(C)C` [Compound 11], for which the pEC50 in the assay on HCV GT 1a replicon is 10.64; in assay [1] it was 10.30.

As for `COC(=O)N[C@H](C(=O)N1C[C@]2(CCCOC2)C[C@H]1c1nc2ccc3cc(-c4ccc5c(ccc6nc([C@@H]7C[C@@H]8CCCC[C@@H]8N7C(=O)[C@@H](NC(=O)OC)C(C)C)[nH]c65)c4)ccc3c2[nH]1)C(C)C` [Compound 23], the negative-log EC50 (pEC50) in the assay on HCV GT 1a replicon is 10.92; in assay [1] it was 11.00.

Consider `COC(=O)N[C@H](C(=O)N1C[C@@]2(CCCO2)C[C@H]1c1ncc(-c2ccc(-c3ccc4c(ccc5nc([C@@H]6CCCN6C(=O)[C@@H](NC(=O)OC)C(C)C)[nH]c54)c3)cc2)[nH]1)C(C)C` [Example 82], for which the negative logarithm of the EC50 (pEC50) in the assay on HCV GT 1a replicon was 10.23; in assay [1], 8.52.

As to `COC(=O)N[C@H](C(=O)N1C[C@]2(CCCOC2)C[C@H]1c1nc2ccc3cc(-c4ccc(-c5cnc([C@@H]6C[C@H]7C[C@H]7N6C(=O)[C@@H](NC(=O)OC)C(C)C)[nH]5)cc4)ccc3c2[nH]1)C(C)C` [Compound 5], the negative logarithm of the EC50 (pEC50) with HCV GT 1a replicon is 11.10; in assay [1], 10.30.
